Results: PMC4980083 (JCI insight, 2016)
Positions count from the first letter of the chain named.

Experiments:
recombinant AR LBD = molecular target: T1, recombinant AR LBD (Homo sapiens, UniProt P10275); assay: Fluorescence polarization competition binding, AR LBD; details: 1 nM fluorescently labeled ligand, AR LBD 25 nM
T1 sequence (P10275 669-900 limits assumed): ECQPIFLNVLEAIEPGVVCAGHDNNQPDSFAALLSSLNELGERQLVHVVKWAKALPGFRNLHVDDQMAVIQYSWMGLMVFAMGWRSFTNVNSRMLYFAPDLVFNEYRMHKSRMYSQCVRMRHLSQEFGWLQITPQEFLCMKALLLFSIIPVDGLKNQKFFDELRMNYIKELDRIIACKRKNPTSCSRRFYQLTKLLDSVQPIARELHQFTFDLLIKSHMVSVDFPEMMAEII

ERα = ERα (Homo sapiens, UniProt P03372); assay: ER transcriptional activity, ERE luciferase reporter; type: cell-based; details: estradiol induced
[1] = molecular target: T2, endogenous full-length AR (Homo sapiens, UniProt P10275, T878A); assay: AR transcriptional activity, PSA
T2 sequence (P10275 1-920 T878A): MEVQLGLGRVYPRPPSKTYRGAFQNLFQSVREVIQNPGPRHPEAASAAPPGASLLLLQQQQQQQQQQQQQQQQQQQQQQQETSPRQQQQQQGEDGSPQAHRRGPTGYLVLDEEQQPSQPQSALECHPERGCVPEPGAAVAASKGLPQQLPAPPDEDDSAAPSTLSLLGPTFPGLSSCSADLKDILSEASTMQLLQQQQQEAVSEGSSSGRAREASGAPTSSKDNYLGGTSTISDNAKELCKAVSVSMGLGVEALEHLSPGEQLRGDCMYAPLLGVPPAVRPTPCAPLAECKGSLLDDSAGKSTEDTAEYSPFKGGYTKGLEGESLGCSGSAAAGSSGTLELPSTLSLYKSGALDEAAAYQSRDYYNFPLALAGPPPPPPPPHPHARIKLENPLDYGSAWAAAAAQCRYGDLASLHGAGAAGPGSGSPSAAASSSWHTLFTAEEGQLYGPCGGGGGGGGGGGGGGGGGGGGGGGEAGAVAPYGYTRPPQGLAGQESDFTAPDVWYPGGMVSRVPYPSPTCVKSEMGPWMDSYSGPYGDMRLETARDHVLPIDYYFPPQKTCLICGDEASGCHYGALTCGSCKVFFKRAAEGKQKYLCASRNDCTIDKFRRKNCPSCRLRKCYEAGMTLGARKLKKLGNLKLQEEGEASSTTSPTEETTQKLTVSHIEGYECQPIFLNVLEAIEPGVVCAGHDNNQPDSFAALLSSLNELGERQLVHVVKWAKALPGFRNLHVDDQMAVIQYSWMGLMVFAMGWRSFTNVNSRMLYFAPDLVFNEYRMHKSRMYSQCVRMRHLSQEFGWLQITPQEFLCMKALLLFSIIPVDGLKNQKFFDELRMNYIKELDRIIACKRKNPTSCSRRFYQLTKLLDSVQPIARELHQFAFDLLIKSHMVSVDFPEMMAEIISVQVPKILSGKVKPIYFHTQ

[2] = molecular target: T3, full-length AR and AR-V567es (Homo sapiens, UniProt P10275); assay: Probasin luciferase activity in LNCaP cells, full-length AR and AR-V567es; details: I-EPI-002 2 μM, enzalutamide 5 μM; presence or absence of androgen
T3 sequence (P10275 1-920): T2 sequence (P10275 1-920 T878A) with A878T
T3 sequence (P10275 with tags, fused parts or gaps limits assumed): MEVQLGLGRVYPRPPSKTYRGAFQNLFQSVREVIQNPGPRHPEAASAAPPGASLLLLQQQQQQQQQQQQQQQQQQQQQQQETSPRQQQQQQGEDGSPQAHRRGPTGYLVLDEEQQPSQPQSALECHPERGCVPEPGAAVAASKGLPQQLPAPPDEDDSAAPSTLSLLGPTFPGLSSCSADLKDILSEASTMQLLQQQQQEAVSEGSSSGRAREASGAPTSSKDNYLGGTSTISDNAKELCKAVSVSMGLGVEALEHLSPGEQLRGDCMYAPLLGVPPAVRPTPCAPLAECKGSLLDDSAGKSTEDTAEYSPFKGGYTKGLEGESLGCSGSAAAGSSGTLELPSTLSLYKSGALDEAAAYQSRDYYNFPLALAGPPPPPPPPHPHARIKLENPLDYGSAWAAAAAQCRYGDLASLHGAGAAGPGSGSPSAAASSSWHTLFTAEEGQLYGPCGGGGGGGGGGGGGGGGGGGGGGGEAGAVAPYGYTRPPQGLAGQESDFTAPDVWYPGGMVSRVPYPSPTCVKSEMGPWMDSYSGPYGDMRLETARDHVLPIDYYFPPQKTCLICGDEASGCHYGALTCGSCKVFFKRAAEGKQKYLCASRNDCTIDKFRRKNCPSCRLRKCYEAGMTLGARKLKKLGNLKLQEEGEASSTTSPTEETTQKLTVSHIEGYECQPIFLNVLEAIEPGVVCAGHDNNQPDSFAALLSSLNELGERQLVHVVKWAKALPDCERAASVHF

Sequence of ERα (P03372 whole entry): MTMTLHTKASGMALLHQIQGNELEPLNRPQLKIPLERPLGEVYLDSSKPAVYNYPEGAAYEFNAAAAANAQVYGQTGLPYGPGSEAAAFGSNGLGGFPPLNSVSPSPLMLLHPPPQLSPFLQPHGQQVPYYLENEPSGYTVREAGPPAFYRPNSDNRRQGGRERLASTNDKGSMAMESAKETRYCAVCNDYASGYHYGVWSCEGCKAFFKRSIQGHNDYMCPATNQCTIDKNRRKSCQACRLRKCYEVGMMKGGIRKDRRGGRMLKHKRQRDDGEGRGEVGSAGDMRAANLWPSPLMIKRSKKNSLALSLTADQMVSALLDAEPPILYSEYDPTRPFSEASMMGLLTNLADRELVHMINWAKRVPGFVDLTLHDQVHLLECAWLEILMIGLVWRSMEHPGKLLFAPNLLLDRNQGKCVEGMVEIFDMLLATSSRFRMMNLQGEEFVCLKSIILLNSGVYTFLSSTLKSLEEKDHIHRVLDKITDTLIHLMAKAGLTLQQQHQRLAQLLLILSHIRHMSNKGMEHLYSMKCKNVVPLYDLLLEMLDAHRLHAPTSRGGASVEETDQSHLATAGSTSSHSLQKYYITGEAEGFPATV

## 15-IodoEPI002 [I-EPI-002]
Recombinant AR LBD
  competition with fluoromone for binding to AR LBD: did not prevent ligand-binding
ERα
  inhibition of ER transcriptional activity: did not inhibit
[1]; cell-based functional assays
  potency relative to EPI-002: 10 times
[1]; increasing R1881, enzalutamide 5 μM, I-EPI-002 5 μM, EPI-002 25 μM
  inhibition of AR transcriptional activity with increasing concentrations of androgen: maintained effective inhibition
[1]; ~2 μM, R1881 1 nM
  inhibition of AR transcriptional activity: 75%
[2]
  inhibition of probasin luciferase activity, full-length AR with V567es: showed good inhibition
